EP0563281B1, “METHOD FOR PROCESSING ELECTRICALLY CONDUCTIVE POLYANILINES IN LEWIS-BASE SOLVENTS” (MONSANTO COMPANY, priority 1990, dated 1992)
Where two headings read alike, the source gives them in different places.

What was measured:
[1] = cited from earlier work
[2] = cited from earlier work; for mp: dipole moment of non-solvent; for m: dipole moment
[3] = Hansen's method for solubility parameters and interaction distance r relative to polyaniline base; details: for r: Table 5, interaction distance to polyaniline base (17.4, 8.5, 10.4)
Description: When multiple literature source were found with widely differing values, those sets of values were taken which were the closest to those theoretically predicted for the given solvent.

[4] = Solvent test with undoped (neutralized) polyaniline (Example 8); format: physicochemical; details: polyaniline synthesized as in Example 1, undoped with aqueous sodium carbonate
Method: A series of potential solvents with significant polar and hydrogen bonding contributions were tested with polyaniline which had been synthesized as in Example 1 and then undoped (neutralized) by treatment with an aqueous solution of sodium carbonate.

[5] = Table 6, second half, Hansen parameter of non-solvent
[6] = Table 6, Hansen parameter of non-solvent
[7] = Table 6, Hildebrand parameter of non-solvent
[8] = Table 5, Hansen parameter of the liquid
[9] = Table 4, dielectric constant relative to permittivity of free space
[10] = Table 4, relative sound velocity in paper wetted by the solvent (water = 100), hydrogen bonding capability
[11] = Table 4, Hildebrand (solubility) parameter

Structure (SMILES) | dd [1, 8] [MPa] | dh [1, 8] [MPa] | dp [1, 8] [MPa] | e [2, 9] | m ([2]; Table 4) | d [2, 11] [MPa] | further results
CCN(CC)CC [triethylamine] | – | – | – | – | – | – | dh [1, 5]: 1.9 MPa; dp [1, 5]: 3.7 MPa; dd [1, 6]: 14.6 MPa; d [2, 7]: 15.3 MPa; mp ([2]; Table 6): 2.2 10^-30 Cm
c1ccncc1 [pyridine] | 17.6 | 7.7 | 10.1 | 12.3 | 7.3 10^-30 Cm | – | gw [2, 10]: 80.0
c1ccc2ncccc2c1 [quinoline] | 19.4 | 7.6 | 7.0 | 9.0 | 7.6 10^-30 Cm | 22.0 | –
CN(C)P(=O)(N(C)C)N(C)C [hexamethylphosporamide] | 18.3 | 11.3 | 8.6 | 30.0 | 17.6 10^-30 Cm | 23.2 | r [3]: 2.0; e ([2]; Table 7, Dielectric Constant): 30.0; d ([2]; Table 7, Hildebrand Parameter): 23.2 MPa
CCCCN(CCCC)CCCC [tributylamine] | – | – | – | – | – | – | dh [1, 5]: 4.0 MPa; dp [1, 5]: 2.8 MPa; dd [1, 6]: 15.1 MPa; d [2, 7]: 15.9 MPa; mp ([2]; Table 6): 2.3 10^-30 Cm
Cc1ccccn1 [2-picoline] | – | – | – | – | – | – | e ([2]; Table 7, Dielectric Constant): 9.8; d ([2]; Table 7, Hildebrand Parameter): 20.9 MPa
CCCCN [butylamine] | 13.6 | 8.0 | 8.1 | 5.3 | 4.7 10^-30 Cm | 18.6 | e ([2]; Table 7, Dielectric Constant): 5.3; d ([2]; Table 7, Hildebrand Parameter): 17.7 MPa; pKa ([2]; Table 7): 10.8
Nc1ccccc1 [aniline] | 19.4 | 10.0 | 5.1 | 6.9 | 5.0 10^-30 Cm | 22.6 | r [3]: 5.3; gw [2, 10]: 94.0
CCNc1ccccc1 [N-Ethylaniline] | – | – | – | – | – | – | dh [1, 5]: 7.7 MPa; dp [1, 5]: 10.5 MPa; dd [1, 6]: 17.1 MPa; d [2, 7]: 21.5 MPa
CCCN [propylamine] | 13.9 | 7.2 | 9.3 | 5.3 | 4.7 10^-30 Cm | – | e ([2]; Table 7, Dielectric Constant): 5.3; pKa ([2]; Table 7): 10.8
CCCCc1ccc(N)cc1 [4-Butylaniline] | – | – | – | – | – | – | dh [1, 5]: 6.6 MPa; dp [1, 5]: 9.1 MPa; dd [1, 6]: 16.9 MPa; d [2, 7]: 20.4 MPa
c1c[nH]cn1 [imidazole] | – | – | – | – | – | – | pKa ([2]; Table 7): 7.1
C1CCNC1 [pyrrolidine] | – | – | – | – | 5.3 10^-30 Cm | – | –
C1COCCN1 [morpholine] | 16.0 | 10.1 | 11.4 | 7.3 | 5.0 10^-30 Cm | 22.1 | r [3]: 4.0; gw [2, 10]: 200.0; e ([2]; Table 7, Dielectric Constant): 7.3; d ([2]; Table 7, Hildebrand Parameter): 22.1 MPa; gw ([2]; Table 7, Hydrogen Bonding): 200.0
NCc1ccccc1 [benzylamine] | – | – | – | – | – | – | pKa ([2]; Table 7): 9.3
NCCN [ethylenediamine] | 16.6 | 17.0 | 8.8 | 12.9 | 6.6 10^-30 Cm | – | e ([2]; Table 7, Dielectric Constant): 12.9; pKa ([2]; Table 7): 10.1
CN(C)C=O [Dimethylformamide] | 17.4 | 11.3 | 13.7 | 37.0 | 11.2 10^-30 Cm | – | gw [2, 10]: 68.0
CN1CCCC1=O [N-methyl-2-pyrrolidone] | 16.5 | 13.5 | 10.4 | 32.0 | – | 23.7 | solvent for undoped polyaniline [4]: solvent
CNNC [Dimethylhydrazine] | 15.3 | 11.0 | 5.9 | – | – | 19.8 | r [3]: 5.0
CC(C)NC(C)C [diisopropylamine] | – | – | – | – | – | – | predicted interaction distance (r) ([3]; Table 6, second half, Hansen Method): 11.3; dh [1, 5]: 2.0 MPa; dp [1, 5]: 6.2 MPa; dd [1, 6]: 13.8 MPa; d [2, 7]: 15.2 MPa
O=C1CCCN1 [2-pyrrolidone] | 19.4 | 11.3 | 17.4 | – | 7.7 10^-30 Cm | 28.4 | r [3]: 99.8; d ([2]; Table 7, Hildebrand Parameter): 28.4 MPa
C1CCNCC1 [piperidine] | – | – | – | – | – | – | e ([2]; Table 7, Dielectric Constant): 5.8; d ([2]; Table 7, Hildebrand Parameter): 19.3 MPa; gw ([2]; Table 7, Hydrogen Bonding): 89.0
Cc1ccccn1 [Picoline] | 18.2 | 6.8 | 7.8 | 9.8 | 6.3 10^-30 Cm | 20.9 | r [3]: 4.0
CN(C)N [1,1-dimethylhydrazine] | – | – | – | – | – | – | d ([2]; Table 7, Hildebrand Parameter): 19.8 MPa
CCCNCCC [dipropylamine] | – | – | – | – | – | – | dh [1, 5]: 5.8 MPa; dp [1, 5]: 6.2 MPa; dd [1, 6]: 14.0 MPa; d [2, 7]: 16.3 MPa
